Assay results reported in ChEMBL document CHEMBL1909046, “DrugMatrix in vitro pharmacology data”.

Columns and labels:
[1] = molecular target: T1, C-X-C chemokine receptor type 1 (Homo sapiens, UniProt P25024); note: in other assays of this panel Not Active means under 50% inhibition at 10 µM
T1 sequence (P25024 whole entry): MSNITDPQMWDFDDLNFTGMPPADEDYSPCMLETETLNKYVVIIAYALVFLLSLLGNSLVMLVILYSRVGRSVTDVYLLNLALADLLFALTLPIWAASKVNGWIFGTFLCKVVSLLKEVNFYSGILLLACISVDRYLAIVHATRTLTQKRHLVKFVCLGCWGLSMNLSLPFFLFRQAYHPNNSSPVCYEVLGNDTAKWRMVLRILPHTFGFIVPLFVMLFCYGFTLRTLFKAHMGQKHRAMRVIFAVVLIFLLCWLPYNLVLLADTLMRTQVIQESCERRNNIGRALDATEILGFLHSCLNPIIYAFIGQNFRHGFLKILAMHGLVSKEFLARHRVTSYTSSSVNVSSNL

[2] = molecular target: T2, Vasoactive intestinal polypeptide receptor 1 (Homo sapiens, UniProt P32241); format: cell membranes, Membrane; details: ht-29; note: in other assays of this panel Not Active means under 50% inhibition at 10 µM
T2 sequence (P32241 whole entry): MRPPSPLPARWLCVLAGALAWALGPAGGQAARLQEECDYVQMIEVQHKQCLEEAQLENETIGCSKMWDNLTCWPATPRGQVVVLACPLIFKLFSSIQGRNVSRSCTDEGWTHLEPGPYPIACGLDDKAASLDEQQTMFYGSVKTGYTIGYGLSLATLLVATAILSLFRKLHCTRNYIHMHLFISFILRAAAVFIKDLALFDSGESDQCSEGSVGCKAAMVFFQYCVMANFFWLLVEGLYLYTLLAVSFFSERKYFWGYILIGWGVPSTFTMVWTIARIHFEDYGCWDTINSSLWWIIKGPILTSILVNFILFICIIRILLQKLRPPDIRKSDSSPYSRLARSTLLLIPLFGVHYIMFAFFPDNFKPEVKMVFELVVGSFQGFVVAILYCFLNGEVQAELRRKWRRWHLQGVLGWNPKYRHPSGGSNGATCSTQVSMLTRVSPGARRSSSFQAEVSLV

[3] = molecular target: T3, Cysteinyl leukotriene receptor 1 (Homo sapiens, UniProt Q9Y271); format: cell membranes, Membrane; details: cho-k1; note: in other assays of this panel Not Active means under 50% inhibition at 10 µM
T3 sequence (Q9Y271 whole entry): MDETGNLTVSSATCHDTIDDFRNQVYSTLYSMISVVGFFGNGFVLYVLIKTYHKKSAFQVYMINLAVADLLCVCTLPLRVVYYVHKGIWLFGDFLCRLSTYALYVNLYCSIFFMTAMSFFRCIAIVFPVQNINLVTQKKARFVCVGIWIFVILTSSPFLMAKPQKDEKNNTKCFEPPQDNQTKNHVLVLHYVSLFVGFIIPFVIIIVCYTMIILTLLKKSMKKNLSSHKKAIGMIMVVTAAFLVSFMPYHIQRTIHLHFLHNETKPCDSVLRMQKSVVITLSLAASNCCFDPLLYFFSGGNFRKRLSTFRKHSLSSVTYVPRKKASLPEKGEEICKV

[4] = molecular target: T4, Alpha-1B adrenergic receptor (Rattus norvegicus, UniProt P15823); test: DRUGMATRIX: Alpha-1B adrenergic receptor radioligand binding (ligand: prazosin); format: cell membranes, Wistar, Liver, Membrane; details: Not Active = under 50% inhibition at 10 µM
T4 sequence (P15823 whole entry): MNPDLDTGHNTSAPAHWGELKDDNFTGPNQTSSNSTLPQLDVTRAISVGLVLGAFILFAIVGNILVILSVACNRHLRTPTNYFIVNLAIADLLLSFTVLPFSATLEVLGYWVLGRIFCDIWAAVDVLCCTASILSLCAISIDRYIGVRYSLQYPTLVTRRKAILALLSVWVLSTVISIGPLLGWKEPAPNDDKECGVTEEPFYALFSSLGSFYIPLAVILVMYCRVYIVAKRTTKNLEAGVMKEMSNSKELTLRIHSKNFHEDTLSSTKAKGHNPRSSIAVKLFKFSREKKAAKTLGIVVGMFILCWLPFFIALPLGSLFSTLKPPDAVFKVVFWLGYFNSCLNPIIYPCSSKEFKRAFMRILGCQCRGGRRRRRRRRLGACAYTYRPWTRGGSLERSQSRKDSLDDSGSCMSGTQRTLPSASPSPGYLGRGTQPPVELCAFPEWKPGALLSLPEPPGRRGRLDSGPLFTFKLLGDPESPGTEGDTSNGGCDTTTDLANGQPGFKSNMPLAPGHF

[5] = molecular target: T5, 3-hydroxy-3-methylglutaryl-coenzyme A reductase (Homo sapiens, UniProt P04035); parameters: species or system Escherichia coli;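 note: enzyme inhibition assay of HMG-CoA reductase using radiolabeled [14C]HMG-CoA as substrate; in other assays of this panel Not Active means under 50% inhibition at 10 µM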
T5 sequence (P04035 whole entry): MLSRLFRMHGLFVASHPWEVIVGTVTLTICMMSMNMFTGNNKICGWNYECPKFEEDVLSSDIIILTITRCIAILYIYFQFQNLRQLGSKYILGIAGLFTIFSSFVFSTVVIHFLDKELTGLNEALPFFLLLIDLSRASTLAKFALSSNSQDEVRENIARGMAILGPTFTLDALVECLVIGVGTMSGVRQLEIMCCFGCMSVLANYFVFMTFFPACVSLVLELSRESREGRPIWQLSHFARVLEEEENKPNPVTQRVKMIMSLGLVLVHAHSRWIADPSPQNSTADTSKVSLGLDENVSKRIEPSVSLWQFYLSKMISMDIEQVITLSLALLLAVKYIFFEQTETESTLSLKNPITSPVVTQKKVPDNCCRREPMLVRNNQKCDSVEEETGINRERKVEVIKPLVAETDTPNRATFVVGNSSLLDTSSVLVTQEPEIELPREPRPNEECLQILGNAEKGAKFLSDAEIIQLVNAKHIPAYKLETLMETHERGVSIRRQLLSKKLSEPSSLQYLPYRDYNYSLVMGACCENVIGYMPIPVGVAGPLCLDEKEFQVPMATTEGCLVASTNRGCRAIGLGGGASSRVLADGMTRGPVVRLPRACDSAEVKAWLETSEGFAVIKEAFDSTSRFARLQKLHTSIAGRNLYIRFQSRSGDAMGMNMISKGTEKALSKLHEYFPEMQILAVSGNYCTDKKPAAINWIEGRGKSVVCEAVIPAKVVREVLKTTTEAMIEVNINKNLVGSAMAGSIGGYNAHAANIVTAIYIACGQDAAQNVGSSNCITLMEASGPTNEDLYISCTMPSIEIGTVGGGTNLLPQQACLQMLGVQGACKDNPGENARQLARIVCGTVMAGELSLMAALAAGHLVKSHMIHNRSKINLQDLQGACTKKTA

SMILES	IC50 [1]	IC50 [2]	IC50 [3]	IC50 [4]	IC50 [5]	IC50 ([4]; read-out: IC50) [nM]	Ki ([4]; read-out: Ki) [nM]
COc1cc(N)nc2[nH]c(-c3ccc(F)cc3)c(-c3ccncc3)c12	Not Active	Not Active	Not Active	Not Active	Not Active	–	–
CNS(=O)(=O)Cc1ccc2[nH]cc(CCN(C)C)c2c1	Not Active	Not Active	Not Active	Not Active	Not Active	–	–
CCCc1nn(C)c2c(=O)[nH]c(-c3cc(S(=O)(=O)N4CCN(C)CC4)ccc3OCC)nc12	Not Active	Not Active	Not Active	–	Not Active	1460	806
COc1ccc(/C=C/C(=O)Nc2ccccc2C(=O)O)cc1OC	Not Active	Not Active	Not Active	Not Active	Not Active	–	–
CCOC(N)=O	Not Active	Not Active	Not Active	Not Active	Not Active	–	–
CC(=O)Nc1nnc(S(N)(=O)=O)s1 [ACETAZOLAMIDE]	Not Active	Not Active	Not Active	–	Not Active	–	–
O=c1[nH]c2ccccc2n1CCCN1CCC(n2c(=O)[nH]c3cc(Cl)ccc32)CC1 [DOMPERIDONE]	Not Active	Not Active	Not Active	–	Not Active	–	–
CC1=C(CC(=O)O)c2cc(F)ccc2/C1=C\c1ccc(S(C)(=O)=O)cc1 [EXISULIND]	Not Active	Not Active	Not Active	Not Active	Not Active	–	–
CC(C)OC(=O)C(C)(C)Oc1ccc(C(=O)c2ccc(Cl)cc2)cc1 [FENOFIBRATE]	Not Active	Not Active	Not Active	–	Not Active	–	–
OCCN1CCN(CCCN2c3ccccc3Sc3ccc(C(F)(F)F)cc32)CC1 [FLUPHENAZINE]	Not Active	Not Active	Not Active	–	Not Active	–	–
CN1C2CCCC1CC(NC(=O)c1nn(C)c3ccccc13)C2 (configuration not stated) [GRANISETRON]	Not Active	Not Active	Not Active	–	Not Active	–	–
Nc1nc2c(c(=O)[nH]1)N(C=O)C(CNc1ccc(C(=O)N[C@@H](CCC(=O)O)C(=O)O)cc1)CN2 (some centres not stated) [LEUCOVORIN]	Not Active	Not Active	Not Active	Not Active	Not Active	–	–
C[C@@H](O)[C@H]1C(=O)N2C(C(=O)O)=C(S[C@@H]3CN[C@H](C(=O)N(C)C)C3)[C@H](C)[C@H]12 [MEROPENEM]	Not Active	Not Active	Not Active	Not Active	Not Active	–	–
CC[C@@H](CO)NC(=O)[C@@H]1C=C2c3cccc4c3c(cn4C)C[C@H]2N(C)C1 [METHYSERGIDE]	Not Active	Not Active	Not Active	–	Not Active	–	–
CCN(CC)CC#CCOC(=O)C(O)(c1ccccc1)C1CCCCC1 (configuration not stated) [OXYBUTYNIN]	Not Active	Not Active	Not Active	–	Not Active	–	–
O=P(O)(O)C(O)(Cc1cccnc1)P(=O)(O)O [RISEDRONIC ACID]	Not Active	Not Active	Not Active	Not Active	Not Active	–	–
CN(CCOc1ccc(CC2SC(=O)NC2=O)cc1)c1ccccn1 (configuration not stated) [ROSIGLITAZONE]	Not Active	Not Active	Not Active	Not Active	Not Active	–	–
C=C(C)[C@H]1Cc2c(ccc3c2O[C@@H]2COc4cc(OC)c(OC)cc4[C@@H]2C3=O)O1 [ROTENONE]	Not Active	Not Active	Not Active	Not Active	Not Active	–	–
C#CCN(C)[C@H](C)Cc1ccccc1 [SELEGILINE]	Not Active	Not Active	Not Active	Not Active	Not Active	–	–
CO[C@H]1C[C@@H]2CC[C@@H](C)[C@@](O)(O2)C(=O)C(=O)N2CCCC[C@H]2C(=O)O[C@H]([C@H](C)C[C@@H]2CC[C@@H](O)[C@H](OC)C2)CC(=O)[C@H](C)/C=C(\C)[C@@H](O)[C@@H](OC)C(=O)[C@H](C)C[C@H](C)/C=C/C=C/C=C/1C [SIROLIMUS]	Not Active	Not Active	Not Active	Not Active	Not Active	–	–
CN[C@@H]1[C@H](O)[C@H](NC)[C@H]2O[C@@]3(O)C(=O)C[C@@H](C)O[C@H]3O[C@@H]2[C@H]1O [SPECTINOMYCIN]	Not Active	Not Active	Not Active	Not Active	Not Active	–	–
Nc1ccc(S(=O)(=O)Nc2ncccn2)cc1 [SULFADIAZINE]	Not Active	Not Active	Not Active	Not Active	Not Active	–	–
COc1ncnc(NS(=O)(=O)c2ccc(N)cc2)c1OC [SULFADOXINE]	Not Active	Not Active	Not Active	Not Active	Not Active	–	–
Nc1ccc(S(=O)(=O)Nc2nccs2)cc1 [SULFATHIAZOLE]	Not Active	Not Active	Not Active	Not Active	Not Active	–	–
C[C@]12CC[C@H]3[C@@H](CCC4=CC(=O)CC[C@@]43C)[C@@H]1CC[C@@H]2O [TESTOSTERONE]	Not Active	Not Active	Not Active	Not Active	Not Active	–	–
O=c1n(CCCN2CCN(c3cccc(Cl)c3)CC2)nc2ccccn12 [TRAZODONE]	Not Active	Not Active	Not Active	–	Not Active	–	–
COc1cc(C(=O)NS(=O)(=O)c2ccccc2C)ccc1Cc1cn(C)c2ccc(NC(=O)OC3CCCC3)cc12 [ZAFIRLUKAST]	Not Active	Not Active	–	Not Active	Not Active	–	–
